Measurements taken from patent US6608086B2, “Dihydropyridines and new uses thereof” (Synaptic Pharmaceutical Corporation, priority 1993, dated 2003).
Like-named read-outs stand apart in the source and are kept apart here.

Experiments:
L-type calcium channel = biological target: T1, L-type calcium channel (Rattus norvegicus, UniProt P22002); assay: Competition binding of [3H]nitrendipine to membrane fragments of rat cardiac muscle
T1 construct: membrane fragments of rat cardiac muscle; from tissue; host or cells: rat cardiac muscle membranes
T1 sequence (P22002 whole entry, other chains not shown, the tested form may be a part): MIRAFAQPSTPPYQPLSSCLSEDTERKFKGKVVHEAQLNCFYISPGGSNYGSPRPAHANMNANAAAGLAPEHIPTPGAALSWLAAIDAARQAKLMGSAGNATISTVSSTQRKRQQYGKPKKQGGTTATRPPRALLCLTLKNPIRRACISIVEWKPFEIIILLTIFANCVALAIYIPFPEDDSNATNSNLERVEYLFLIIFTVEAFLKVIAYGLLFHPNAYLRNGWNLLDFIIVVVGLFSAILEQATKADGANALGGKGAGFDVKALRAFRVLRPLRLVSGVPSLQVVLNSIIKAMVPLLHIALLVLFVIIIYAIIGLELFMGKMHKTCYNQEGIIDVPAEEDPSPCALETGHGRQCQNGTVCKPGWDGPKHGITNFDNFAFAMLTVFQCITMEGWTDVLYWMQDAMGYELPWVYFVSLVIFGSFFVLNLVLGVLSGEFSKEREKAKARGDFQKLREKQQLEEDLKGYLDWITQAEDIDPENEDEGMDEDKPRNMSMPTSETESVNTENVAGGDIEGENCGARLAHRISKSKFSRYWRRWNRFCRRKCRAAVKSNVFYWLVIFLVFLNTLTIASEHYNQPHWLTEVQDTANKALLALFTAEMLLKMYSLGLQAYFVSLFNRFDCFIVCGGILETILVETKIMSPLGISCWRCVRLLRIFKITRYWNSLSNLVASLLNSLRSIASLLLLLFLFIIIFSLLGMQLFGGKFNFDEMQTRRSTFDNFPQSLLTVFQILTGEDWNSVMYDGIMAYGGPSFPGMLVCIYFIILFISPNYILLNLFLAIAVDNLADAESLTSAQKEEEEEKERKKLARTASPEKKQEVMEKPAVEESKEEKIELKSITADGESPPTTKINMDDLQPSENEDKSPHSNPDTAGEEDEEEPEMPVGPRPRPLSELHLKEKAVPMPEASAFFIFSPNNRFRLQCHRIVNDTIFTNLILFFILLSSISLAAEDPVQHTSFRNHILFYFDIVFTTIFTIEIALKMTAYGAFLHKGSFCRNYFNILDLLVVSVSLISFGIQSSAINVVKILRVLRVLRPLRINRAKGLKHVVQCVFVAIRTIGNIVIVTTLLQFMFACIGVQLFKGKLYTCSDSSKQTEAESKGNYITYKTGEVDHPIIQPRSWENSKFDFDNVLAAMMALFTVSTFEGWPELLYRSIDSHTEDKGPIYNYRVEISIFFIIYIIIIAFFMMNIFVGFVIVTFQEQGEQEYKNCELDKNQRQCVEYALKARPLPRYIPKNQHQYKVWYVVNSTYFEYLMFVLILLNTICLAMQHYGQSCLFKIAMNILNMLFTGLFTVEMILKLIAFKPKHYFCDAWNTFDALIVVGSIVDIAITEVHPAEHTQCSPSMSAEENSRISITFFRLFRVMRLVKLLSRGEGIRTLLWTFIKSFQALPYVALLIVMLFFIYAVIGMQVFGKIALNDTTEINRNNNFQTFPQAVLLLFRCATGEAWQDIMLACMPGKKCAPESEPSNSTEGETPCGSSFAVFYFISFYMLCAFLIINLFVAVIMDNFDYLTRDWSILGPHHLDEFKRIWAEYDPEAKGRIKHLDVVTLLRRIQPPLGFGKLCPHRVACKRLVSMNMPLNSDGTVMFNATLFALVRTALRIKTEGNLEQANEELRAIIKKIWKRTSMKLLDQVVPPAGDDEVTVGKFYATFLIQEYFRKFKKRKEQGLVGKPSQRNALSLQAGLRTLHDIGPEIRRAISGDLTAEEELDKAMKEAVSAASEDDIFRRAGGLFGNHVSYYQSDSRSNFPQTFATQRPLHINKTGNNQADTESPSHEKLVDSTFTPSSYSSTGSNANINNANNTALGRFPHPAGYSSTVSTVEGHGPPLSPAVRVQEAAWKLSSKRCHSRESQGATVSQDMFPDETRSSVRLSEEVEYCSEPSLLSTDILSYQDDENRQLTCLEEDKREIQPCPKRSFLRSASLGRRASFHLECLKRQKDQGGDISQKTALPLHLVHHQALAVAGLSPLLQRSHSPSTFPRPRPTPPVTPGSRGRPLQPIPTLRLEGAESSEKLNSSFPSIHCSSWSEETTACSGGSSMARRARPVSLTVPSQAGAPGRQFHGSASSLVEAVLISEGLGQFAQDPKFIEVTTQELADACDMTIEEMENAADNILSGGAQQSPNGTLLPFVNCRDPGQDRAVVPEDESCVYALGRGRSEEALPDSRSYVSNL
T1 sequence (P54290 25-944 partner limits assumed, other chains not shown): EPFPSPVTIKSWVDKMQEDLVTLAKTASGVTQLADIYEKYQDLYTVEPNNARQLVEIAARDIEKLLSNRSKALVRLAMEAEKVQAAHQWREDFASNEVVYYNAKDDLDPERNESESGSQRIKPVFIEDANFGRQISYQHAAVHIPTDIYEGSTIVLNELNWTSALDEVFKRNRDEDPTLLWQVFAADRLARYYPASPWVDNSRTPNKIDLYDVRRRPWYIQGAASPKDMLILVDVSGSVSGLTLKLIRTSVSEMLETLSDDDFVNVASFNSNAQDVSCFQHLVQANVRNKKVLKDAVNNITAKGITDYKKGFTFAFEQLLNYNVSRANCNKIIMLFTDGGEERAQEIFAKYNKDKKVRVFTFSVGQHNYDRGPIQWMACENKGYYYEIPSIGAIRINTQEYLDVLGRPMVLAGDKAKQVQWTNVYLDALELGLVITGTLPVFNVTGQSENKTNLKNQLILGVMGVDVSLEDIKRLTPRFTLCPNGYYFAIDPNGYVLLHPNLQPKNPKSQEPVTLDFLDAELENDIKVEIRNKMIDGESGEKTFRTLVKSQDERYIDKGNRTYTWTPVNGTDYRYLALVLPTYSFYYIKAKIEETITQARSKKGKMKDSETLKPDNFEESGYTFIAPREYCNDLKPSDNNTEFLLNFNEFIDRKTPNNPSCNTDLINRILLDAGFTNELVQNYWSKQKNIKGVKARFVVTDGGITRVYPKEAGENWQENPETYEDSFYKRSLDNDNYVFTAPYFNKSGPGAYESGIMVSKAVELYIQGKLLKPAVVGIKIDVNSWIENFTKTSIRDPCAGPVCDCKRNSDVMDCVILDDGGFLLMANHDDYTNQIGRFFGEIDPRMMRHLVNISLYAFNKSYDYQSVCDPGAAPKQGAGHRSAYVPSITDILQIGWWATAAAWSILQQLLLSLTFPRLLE
T1 sequence (P54290 945-1091 partner limits assumed, other chains not shown): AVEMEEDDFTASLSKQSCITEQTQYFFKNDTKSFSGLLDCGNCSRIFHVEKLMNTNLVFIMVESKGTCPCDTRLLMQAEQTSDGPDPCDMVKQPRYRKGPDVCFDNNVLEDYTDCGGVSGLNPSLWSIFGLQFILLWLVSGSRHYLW
Method: (§1) The protocols for these experiments are given below.
Determination of the Activity of al Antagonists at Calcium Channels
Briefly, the tissue was minced and homogenized in 50 mM Tris-HCl (pH 7.4) containing 0.1 mM phenylmethylsulfonyl fluoride. The homogenates were centrifuged at 1000 g for 15 minutes, the resulting supernatant was centrifuged at 45,000 g for 15 minutes. The 45,000 g pellet was suspended in buffer and centrifuged a second time. Aliquots of membrane protein were incubated for 30 minutes at 37° C. in the presence of [3H]nitrendipine (1 nM), and nonspecific binding was determined in the presence of 10 μM nifedipine. The bound radioligand was separated by filtration through GF/B filters using a cell harvester.

α2A receptor = biological target: T2, α2A receptor (Homo sapiens, UniProt P08913); assay: Competition binding, [3H]rauwolscine, human α2A receptor; settings: [3H]rauwolscine, human receptor, LM(tk-) cell lysates; mean; read-out: PKi alpha-2 2a (converted)
T2 construct: host or cells: LM(tk-) cells, line L-α2A
T2 sequence (P08913 1-465): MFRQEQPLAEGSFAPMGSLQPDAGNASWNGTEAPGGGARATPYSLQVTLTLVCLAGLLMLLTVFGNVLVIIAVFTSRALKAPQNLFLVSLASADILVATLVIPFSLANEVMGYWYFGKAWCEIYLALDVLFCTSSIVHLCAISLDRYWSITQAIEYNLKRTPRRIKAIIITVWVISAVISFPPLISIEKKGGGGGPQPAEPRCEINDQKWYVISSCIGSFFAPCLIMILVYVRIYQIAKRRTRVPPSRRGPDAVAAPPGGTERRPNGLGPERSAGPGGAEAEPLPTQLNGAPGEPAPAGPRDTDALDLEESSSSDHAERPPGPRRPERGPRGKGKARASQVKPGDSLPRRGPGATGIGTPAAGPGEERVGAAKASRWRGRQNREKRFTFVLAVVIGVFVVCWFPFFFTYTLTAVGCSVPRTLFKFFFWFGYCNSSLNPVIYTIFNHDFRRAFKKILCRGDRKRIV
Source text: as §1
(§2) α2 Human Adrenergic Receptors:
(§3) To determine the potency of […], antagonists at the α2 receptors, LM(tk−) cell lines stably transfected with the genes encoding the α2A, α2B, and α2C receptors were used. The cell line expressing the α2A receptor is designated L-α2A, and was deposited on Nov. […] The cell line expressing the α2B receptor is designated L-NGC-α2B, and was deposited on Oct. […] The cell line expressing the α2C receptor is designated L-α2C, and was deposited on Nov. […] Cell lysates were prepared as described above (see Radioligand Binding Assays), and suspended in 25 mM glycylglycine buffer (pH 7.6 at room temperature). Equilibrium competition binding assay were performed using [3H]rauwolscine (0.5 nM), and nonspecific binding was determined by incubation with 10 μM phentolamine. The bound radioligand was separated by filtration through GF/B filters using a cell harvester.

α2B receptor = biological target: T3, α2B receptor (Homo sapiens, UniProt P18089); assay: Competition binding, [3H]rauwolscine, human α2B receptor; settings: [3H]rauwolscine, human receptor, LM(tk-) cell lysates; mean; read-out: PKi alpha-2 2b (converted)
T3 construct: host or cells: LM(tk-) cells, line L-NGC-α2B
T3 sequence (P18089 1-450): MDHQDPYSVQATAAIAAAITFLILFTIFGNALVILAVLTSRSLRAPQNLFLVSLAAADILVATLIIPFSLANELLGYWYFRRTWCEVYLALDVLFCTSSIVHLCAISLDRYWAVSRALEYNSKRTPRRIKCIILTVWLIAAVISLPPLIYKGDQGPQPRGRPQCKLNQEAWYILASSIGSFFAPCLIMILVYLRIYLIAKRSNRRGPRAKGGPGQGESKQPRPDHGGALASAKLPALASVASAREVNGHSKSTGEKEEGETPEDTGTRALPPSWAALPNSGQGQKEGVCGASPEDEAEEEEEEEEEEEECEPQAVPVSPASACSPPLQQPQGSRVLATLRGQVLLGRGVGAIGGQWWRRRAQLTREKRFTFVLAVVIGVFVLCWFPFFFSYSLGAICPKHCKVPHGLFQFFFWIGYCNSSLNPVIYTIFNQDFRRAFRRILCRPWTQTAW
Source text: as §1, §2, §3

α2C receptor = biological target: T4, α2C receptor (Homo sapiens, UniProt P18825); assay: Competition binding, [3H]rauwolscine, human α2C receptor; settings: [3H]rauwolscine, human receptor, LM(tk-) cell lysates; mean; read-out: PKi alpha-2 2c (converted)
T4 construct: host or cells: LM(tk-) cells, line L-α2C
T4 sequence (P18825 1-462): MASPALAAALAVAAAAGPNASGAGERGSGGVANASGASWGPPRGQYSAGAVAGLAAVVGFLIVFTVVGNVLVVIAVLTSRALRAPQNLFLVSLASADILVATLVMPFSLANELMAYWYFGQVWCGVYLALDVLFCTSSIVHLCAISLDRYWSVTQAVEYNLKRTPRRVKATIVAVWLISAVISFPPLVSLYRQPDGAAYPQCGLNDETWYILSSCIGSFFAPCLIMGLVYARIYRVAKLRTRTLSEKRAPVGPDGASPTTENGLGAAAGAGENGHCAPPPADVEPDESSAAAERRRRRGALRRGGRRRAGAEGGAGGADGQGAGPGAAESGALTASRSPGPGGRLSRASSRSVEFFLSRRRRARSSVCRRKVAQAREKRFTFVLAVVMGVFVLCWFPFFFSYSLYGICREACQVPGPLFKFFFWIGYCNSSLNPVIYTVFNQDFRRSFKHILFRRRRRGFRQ
Source text: as §1, §2, §3

[1] = biological target: T5, α1A Human Adrenergic Receptor (Homo sapiens, UniProt P25100); assay: Radioligand binding, [3H]prazosin, cloned human α1A adrenergic receptor
T5 construct: The entire coding region of α1A (1719 bp); expressed in transfected cells
T5 sequence (P25100 1-572): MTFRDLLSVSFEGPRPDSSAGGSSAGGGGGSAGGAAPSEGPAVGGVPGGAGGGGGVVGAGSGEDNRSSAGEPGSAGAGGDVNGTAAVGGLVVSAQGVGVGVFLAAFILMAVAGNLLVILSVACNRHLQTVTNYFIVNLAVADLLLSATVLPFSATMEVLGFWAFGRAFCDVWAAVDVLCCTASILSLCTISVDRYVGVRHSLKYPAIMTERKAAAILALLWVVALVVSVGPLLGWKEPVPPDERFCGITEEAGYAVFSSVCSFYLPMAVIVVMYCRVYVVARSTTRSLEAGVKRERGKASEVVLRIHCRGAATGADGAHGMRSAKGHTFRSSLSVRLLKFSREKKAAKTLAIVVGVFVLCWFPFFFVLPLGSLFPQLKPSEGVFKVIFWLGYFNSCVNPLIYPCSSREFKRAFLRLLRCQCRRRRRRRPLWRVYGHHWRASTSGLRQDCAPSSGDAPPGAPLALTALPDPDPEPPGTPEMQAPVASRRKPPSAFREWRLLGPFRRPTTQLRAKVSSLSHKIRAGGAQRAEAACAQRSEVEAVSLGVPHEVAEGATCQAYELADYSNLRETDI
Summary of the method: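 [3H]prazosin 0.5 nM, transfected LM(tk−) membranes, 37° C, 20 min. Buffer 50 mM Tris-HCl/1 mM MgCl2/0.1% ascorbate, pH 7.5. NSB: 10 μM phentolamine. Filtration harvest.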

[2] = biological target: T6, α1B Human Adrenergic Receptor (Homo sapiens, UniProt P35368); assay: Radioligand binding, [3H]prazosin, cloned human α1B adrenergic receptor; settings: cloned human receptor, LM(tk-) cell membranes, mean, read-out: PKi alpha-1 1b (converted)
T6 construct: The entire coding region of α1B (1563 bp); expressed in transfected cells
T6 sequence (P35368 1-520): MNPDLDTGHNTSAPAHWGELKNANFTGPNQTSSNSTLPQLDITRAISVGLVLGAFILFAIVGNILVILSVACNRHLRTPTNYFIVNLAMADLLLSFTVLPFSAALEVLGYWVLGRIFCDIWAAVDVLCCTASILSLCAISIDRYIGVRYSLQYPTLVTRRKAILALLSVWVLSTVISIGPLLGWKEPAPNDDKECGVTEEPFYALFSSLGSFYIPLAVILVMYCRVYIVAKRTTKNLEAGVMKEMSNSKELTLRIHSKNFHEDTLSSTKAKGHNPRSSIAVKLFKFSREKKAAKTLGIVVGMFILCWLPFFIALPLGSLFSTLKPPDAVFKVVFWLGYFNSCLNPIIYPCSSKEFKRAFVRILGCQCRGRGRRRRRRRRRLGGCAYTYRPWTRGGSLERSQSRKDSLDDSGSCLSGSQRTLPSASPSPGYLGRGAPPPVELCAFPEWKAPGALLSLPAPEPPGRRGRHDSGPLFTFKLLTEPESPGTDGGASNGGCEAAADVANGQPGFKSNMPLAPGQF
Summary of the method: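 [3H]prazosin (0.5 nM) binding was run for 20 min at 37° C in pH 7.5 Tris/MgCl2/ascorbate buffer on membranes of LM(tk−) cells stably expressing the cloned receptor. Filtration through GF/B ended the reaction; 10 μM phentolamine gave nonspecific binding.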

[3] = biological target: T7, α1C Human Adrenergic Receptor (Homo sapiens, UniProt P35348); assay: Radioligand binding, [3H]prazosin, cloned human α1C adrenergic receptor; settings: cloned human receptor, LM(tk-) cell membranes, mean, read-out: PKi alpha-1 1c (converted)
T7 construct: The entire coding region of α1C (1401 bp); expressed in transfected cells
T7 sequence (P35348 1-466): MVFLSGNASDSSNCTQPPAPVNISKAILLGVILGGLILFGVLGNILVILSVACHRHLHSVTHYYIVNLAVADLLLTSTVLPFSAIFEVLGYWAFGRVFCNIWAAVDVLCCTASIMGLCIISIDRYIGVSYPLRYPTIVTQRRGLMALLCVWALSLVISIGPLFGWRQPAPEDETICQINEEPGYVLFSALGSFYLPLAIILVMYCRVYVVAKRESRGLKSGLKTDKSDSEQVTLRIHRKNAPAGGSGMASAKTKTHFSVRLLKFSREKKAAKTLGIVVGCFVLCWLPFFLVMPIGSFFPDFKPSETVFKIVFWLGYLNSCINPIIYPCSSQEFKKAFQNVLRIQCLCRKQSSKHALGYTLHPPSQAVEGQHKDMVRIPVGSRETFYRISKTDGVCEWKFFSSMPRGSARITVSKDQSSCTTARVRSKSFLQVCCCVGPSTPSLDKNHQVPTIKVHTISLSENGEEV
Summary of the method: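 Membranes from LM(tk−) cells stably expressing the cloned human α1C receptor were incubated with 0.5 nM [3H]prazosin at 37° C. for 20 min in 50 mM Tris-HCl, 1 mM MgCl2, 0.1% ascorbic acid, pH 7.5. Nonspecific binding was defined with 10 μM phentolamine, and bound ligand was separated by GF/B filtration.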

[4] = [3H]prazosin, cloned human receptor, LM(tk-) cell membranes, mean, read-out: PKi alpha-1 1a (converted)

| SMILES | Ki (α2A receptor) | Ki (α2B receptor) | melting point | Ki (α2C receptor) | Ki [1, 4] | Ki [2] | Ki [3] | further results |
| --- | --- | --- | --- | --- | --- | --- | --- | --- |
| CCC1=C(C(N)=O)C(c2ccc([N+](=O)[O-])cc2)C(C(=O)NCCCN2CCC(c3ccccc3)(c3ccccc3)CC2)=C(COCCN)N1 (racemic) [(±)-144, 2-((2-Aminoethyl)oxy)methyl-5-carboxamido-6-ethyl-1,4-dihydro-4-(4-nitro)phenyl-3-(N-(3-(4,4-diphenylpiperidin-1-yl)propyl))carboxamidopyridine] |  |  |  |  |  |  |  | Ki (L-type calcium channel; [3H]nitrendipine, rat cardiac muscle membrane fragments, L-type calcium channel, read-out: pKi Ca (converted)): 12.6 µM |
| COC(=O)C1(c2ccccc2)CCN(CCCNC(=O)C2=C(C)NC(C)=C(C(=O)O)C2c2ccc([N+](=O)[O-])cc2)CC1 (centres unmarked) [Example 204, 1,4-Dihydro-2,6-dimethyl-3-{N-[3-(4-methoxycarbonyl-4-phenylpiperidin-1-yl)propyl]}carboxamido-4-(4-nitrophenyl)pyridine-5-carboxylic acid] | 1170 nM | 1700 nM | 139 to 141 °C | 1230 nM |  |  |  |  |
| COC(=O)C1(c2ccccc2)CCN(CCCNC(=O)C2=C(C)NC(C)=C(C(=O)OCCO)C2c2ccc([N+](=O)[O-])cc2)CC1 (centres unmarked) [Example 207, 1,4-Dihydro-2,6-dimethyl-5-(2-hydroxyethoxycarbonyl)-3-{N-[3-(4-methoxycarbonyl-4-phenylpiperidin-1-yl)propyl]}carboxamido-4-(4-nitrophenyl)pyridine] | 724 nM | 955 nM | 90 to 91 °C | 1780 nM | 1860 nM |  |  |  |
| CCOC(=O)C1=C(C)NC(C)=C(C(=O)NCCCN2CCC(C(=O)OC)(c3ccccc3)CC2)C1c1ccc([N+](=O)[O-])cc1 (centres unmarked) [Example 208] | 2690 nM | 1260 nM | 73 to 75 °C | 977 nM | 741 nM |  |  |  |
| CC1=C(C(N)=O)C(c2ccc([N+](=O)[O-])cc2)C(C(=O)NCCCN2CCC(c3ccccc3)CC2)=C(COCCN=[N+]=[N-])N1 (centres unmarked) [Example 216, 2-((Azidoethyl)oxy)methyl-5-carboxamido-1,4-dihydro-6-methyl-4-(4-nitro)phenyl-3-(N-(3-(4-phenylpiperidin-1-yl)propyl))carboxamidopyridine] |  |  |  |  | 60.3 nM | 7.08 nM | 1.7 nM | Ki (L-type calcium channel; [3H]nitrendipine, rat cardiac muscle membranes, mean, read-out: PKi Ca (converted)): 1 µM |
| CC1=C(C(N)=O)C(c2ccc([N+](=O)[O-])cc2)C(C(=O)NCCCN2CCC(c3ccccc3)(c3ccccc3)CC2)=C(COCCN)N1 (centres unmarked) [Example 217, 2-((2-Aminoethyl)oxy)methyl-5-carboxamido-1,4-dihydro-6-methyl-3-(N-(3-(4,4-diphenylpiperidin-1-yl)propyl))carboxamido-4-(4-nitro)phenylpyridine] |  |  |  |  |  | 447 nM | 2.45 nM | Ki (L-type calcium channel; PKi Ca): 8.13 µM; Ki ([1]; PKi alpha-1 1a): 776 nM |
